Measured values taken from US7705203B2, “Benzoate inductible promoters” (Purdue Research Foundation, priority 2002, dated 2010).
Entries after “also recorded” stand apart in the source; their conditions may differ.

Assays:
[1] = tested on: bphA gene; assay: RNA (Northern) blot of bphA gene transcription in mycelia; assay type: cell-based, Aspergillus niger
Procedure: The time course gene expression induction was examined by analyzing total RNA at different times after adding benzoic acid. Northern (RNA) blots were carried out using total RNA extracted from mycelia grown for different periods of time in the presence of benzoic acid. Initially, the fungus was inoculated in CM medium (Pontecorvo (1953) Adv. Genet. 5: 141-238) for 24 hours, transferred to benzoate-containing medium (0.1% w/v) for different times, and total RNA was extracted using the Rneasy Plant Total RNA kit (Qiagen Inc, Valencia, Calif.) according to the manufacturer's instructions. Total RNA was resolved on a formaldehyde-agarose gel and transferred to a Hybond-N nylon membrane (Amersham Life Sci. Inc, Arlington Heights, Ill.). Radiolabeled BPH probe was allowed to hybridize to the membrane, as described above. Northern blot methods were also carried out as recommended (Amersham).
Different benzoate concentrations and inducers were used to better characterize the inducibility of the bphA gene. Gene expression was assayed by Northern blots. Benzoate 4-hydroxylase activity is also assessed by enzymatic assays to confirm the inducibility at the transcriptional level described by Van Gorcom et al. ((1990) Mol. Gen. Genet. 223, 192-197). Inducibility is also verified by reverse transcription of mRNAs produced under induction conditions.
To verify the inducibility of the bphA gene by benzoic acid, A. niger was inoculated in complete medium and grown for 24 hours before being transferred to fresh medium containing 0.1% benzoic acid. Mycelia were harvested after different periods of induction, and total RNA was extracted.

[2] = tested on: BRE; assay: Activation of BRE fused to GFP in fungal protoplasts (surface receptor test); assay type: cell-based
Procedure: While not necessary to understand to practice the invention, a more complicated mechanism of induction may include a surface receptor that binds to benzoate and which then initiates either some kind of signal transduction cascade or the release of a TF that then culminates in the activation of the BPH promoter (FIGS. 12C and D). The hypothesis of a surface receptor was tested by using the p-NH2-benzoate coupled to agarose (as described above) as a non-cleavable external probe. Fungal protoplasts containing the BRE fused to GFP were then prepared, and activation of the BRE (production of the GFP marker) by addition of the agarose-immobilized benzoate derivative to the fungal protoplasts was scored. […] In order to investigate whether the disparity of size between the larger agarose beads and fungal protoplasts may have caused steric problems in binding of the inducer, smaller ligands still incapable of uptake are constructed and utilized to confirm a non-membrane surface location.
The hypothesis of a surface receptor was tested by using the p-NH2-benzoate coupled to agarose (as described above) as a non-cleavable external probe. Fungal protoplasts containing the BRE fused to GFP were then prepared, and activation of the BRE (production of the GFP marker) by addition of the agarose-immobilized benzoate derivative to the fungal protoplasts was scored. […]

[3] = tested on: GAD1 and GAD11 genes; assay: RT-PCR expression of GAD1 and GAD11 genes in response to benzoic acid; assay type: cell-based, A. niger; details: 8 mM benzoic acid for 5 h
Procedure: Total RNA was extracted from uninduced and benzoic acid-induced A. niger mycelia as described earlier, and approximately 1 μg was used to synthesize first strand cDNAs with the SuperScript First-strand Synthesis System for RT-PCR (Invitrogen, Carlsbad, Calif.). The reaction was carried out in the presence of 0.5 μg of an oligo(dT) primer, 0.5 mM dNTP mix, 5 mM MgCl2, 10 mM DTT, 1× RT buffer (20 mM Tris.HCl pH 8.4, 50 mM KCl), RNAseOUT™ RNAse inhibitor, and 50 U of SuperScript™ II Reverse Transcriptase. Tubes were incubated at 42° C. for 50 min, after which the reaction was terminated at 70° C. for 15 min. RNAse H was added, and tubes were incubated for an additional 20 min at 37° C. Double-stranded cDNAs were amplified by PCR using Red Taq DNA Polymerase (Sigma-Aldrich, St. Louis, Mo.), dNTP's, and gene specific primers: GAD1F (5′-[…]-3′, SEQ ID NO:30), GAD1R (5′-[…]-3′, SEQ ID NO:31), GAD11F (5′-[…]-3′, SEQ ID NO:32), and GAD11R (5′-[…]-3′, SEQ ID NO:33). PCR amplification consisted of a denaturation step at 94° C. for 5 min, followed by 30 cycles, each of denaturation at 94° C. for 45 sec, annealing at 56° C. for 30 sec, and extension at 72° C. for 1 min. A final extension step at 72° C. for 10 min was also included. Amplified cDNAs were separated on a 0.8% agarose gel containing EtBr, and bands were visualized under UV light.

[4] = tested on: bzuA; assay: RNA blots of bzuA expression; assay type: cell-based, A. nidulans; details: benzoic acid in the media
Text: On the other hand, while N. crassa also contains a bphA homolog, there is no current information available as to its response to benzoic acid.

Structure (SMILES): O=C(O)c1ccccc1 [benzoic acid]
- induction of transcription of the bphA gene ([1]; 8 mM inducer, RNA blot (FIG. 4)): induced
- benzoic acid concentrations as low as ... induce transcription of the bphA gene ([1]; concentration curves): 0.8 mM
- GFP fluorescence in the BRE-GFP transformed line [2]: induced GFP fluorescence
- expression of GAD1 [3]: expressed constitutively; also recorded: constitutive
- expression of GAD11 [3]: slightly downregulated; also recorded: slightly down-regulated
- expression of bzuA [4]: upregulated
